Values quoted from earlier work in US20170217996A1, “Large-scale diastereoselective syntheses of cycloheptadienylsulfones and stereotetrads” (Purdue Research Foundation, priority 2014, published 2017).

Experiments:
Colon 26 carcinoma = conditions: mice
tubulin = conditions: in association with actin
B16 melanoma = conditions: mice
P388 leukemia = conditions: mice
Ehrlich carcinoma = conditions: mice
actin = conditions: in vitro
Lewis lung = conditions: mice

COCC(C(=O)O[C@@H]1C/C=C/C=C/C(=O)O[C@H]([C@@H](C)[C@@H](O)[C@@H](C)CC[C@@H](OC(=O)C(C)N(C)C)[C@H](C)[C@H](OC(C)=O)[C@H](C)/C=C/N(C)C=O)C/C=C/[C@H](OC)C[C@H](C)C/C=C(\C)[C@@H](OC)CC[C@@H](C)[C@@H](O)[C@@H]1C)N(C)C (stereo partly drawn) [ApA, Aplyronine A]
increase of lifespan (Colon 26 carcinoma): 255% | inhibition of tubulin polymerization (tubulin): inhibits tubulin polymerization | concentration that inhibits spindle formation and mitosis (HeLa S3 cells): 100 pM | increase of lifespan (B16 melanoma): 201% | increase of lifespan (P388 leukemia): 545% | increase of lifespan (Ehrlich carcinoma): 398% | inhibition of actin polymerization (actin): inhibit actin polymerization in vitro to the same extent | increase of lifespan (Lewis lung): 566% | complex with actin and tubulin (actin and tubulin): 1:1:1 heterotrimeric complex
